What was measured:
Colletotricum lagenarium = assay: Cucumber Anthracnose (COLLLA), whole-plant fungicide test; type: in vivo; settings: Cucumis sativus, foliar, 24 h, 200 ppm on foliage, one-day protectant test, read-out: COLLLA percent control of disease
Erysiphe cichoracaerum = assay: Cucumber Powdery Mildew (ERYSCI), whole-plant fungicide test; type: in vivo; settings: 200 ppm on foliage, one-day protectant test; for pest or weed control at 200 ppm: Erysiphe, foliar, 24 h, read-out: ERYSCI percent control of disease
[1] = test system: Puccinia recondita tritici; assay: Leaf Rust of Wheat (PUCCRT), whole-plant fungicide test; type: in vivo; settings: 200 ppm on foliage, one-day protectant test; for pest or weed control at 200 ppm: Puccinia recondita, foliar, 24 h, read-out: PUCCRT percent control of disease
[2] = test system: Erysiphe graminis f. sp. tritici; assay: Powdery Mildew of Wheat (ERYSGT), whole-plant fungicide test; type: in vivo; settings: Blumeria graminis, foliar, 24 h, 200 ppm on foliage, one-day protectant test, read-out: ERYSGT percent control of disease
Phytophthora infestans = assay: whole plant or invertebrate; type: in vivo; settings: Phytophthora infestans, in Solanum lycopersicum, foliar, 24 h, read-out: PHYTIN percent control of disease, 200 ppm on foliage, tomato, one-day protectant test
Magnaporthe grisea = assay: whole plant or invertebrate; type: in vivo; settings: for pest or weed control at 200 ppm: Pyricularia oryzae, in Oryza sativa, foliar, 24 h, read-out: PYRIOR percent control of disease, 200 ppm on foliage, rice, one-day protectant test
Septoria tritici = assay: Speckled Leaf Blotch of Wheat (SEPTTR), whole-plant fungicide test; type: in vivo; settings: Zymoseptoria tritici, foliar, 24 h, 200 ppm on foliage, one-day protectant test, read-out: SEPTTR percent control of disease
Cochliobolus sativus = assay: Spot Blotch of Wheat (COCHSA), whole-plant fungicide test; type: in vivo; settings: Bipolaris sorokiniana, foliar, 24 h, 200 ppm on foliage, one-day protectant test, read-out: COCHSA percent control of disease
Procedure, shortened: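 Percent control is derived from disease severity relative to untreated inoculated plants, scored 4–28 days later. Spore inoculation followed foliar spraying by one day (protectant) or preceded it by two days (curative); plants kept humid 1-2 days before greenhouse. Spray dose was 200 ppm, occasionally 100, 75 or 8.3 ppm, in acetone/Triton X100 water.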

Leptosphaeria nodorum = assay: Glume Blotch of Wheat (LEPTNO), whole-plant fungicide test; type: in vivo; settings: Parastagonospora nodorum, foliar, 24 h, 200 ppm on foliage, one-day protectant test, read-out: LEPTNO percent control of disease

Compound	melting point [°C]	pest or weed control at 200 ppm (Colletotricum lagenarium) [%]	pest or weed control at 200 ppm (Erysiphe cichoracaerum) [%]	pest or weed control at 200 ppm [1] [%]	pest or weed control at 200 ppm [2] [%]	pest or weed control at 200 ppm (Phytophthora infestans) [%]	pest or weed control at 200 ppm (Magnaporthe grisea) [%]	pest or weed control at 200 ppm (Septoria tritici) [%]	pest or weed control at 200 ppm (Cochliobolus sativus) [%]	pest or weed control at 200 ppm (Leptosphaeria nodorum) [%]	ERYSCI percent control of disease (Erysiphe cichoracaerum)	PUCCRT percent control of disease [1]	PYRIOR percent control of disease (Magnaporthe grisea; 200 ppm on foliage, rice, one-day protectant test)
OCC(Cc1ccccc1)Nc1ncnc2scc(Cl)c12 (centres unmarked) [Compound 31]	104 to 105	0 to 49	80 to 100	80 to 100	0 to 49	80 to 100	80 to 100	0 to 49	0 to 49	0 to 49			
O[C@@H](CNc1ncnc2scc(Cl)c12)c1ccccc1 [Compound 32]	111 to 112	0 to 49	0 to 49	80 to 100	0 to 49	0 to 49	80 to 100	0 to 49	0 to 49	0 to 49			
CCOC(=O)c1sc2ncnc(NC(C)c3ccc(OC)cc3)c2c1O (centres unmarked) [Compound 52, 5-Hydroxy-4-[1-(4-methoxyphenyl)ethylamino]thieno[2,3-d]pyrimidine-6-carboxylic Acid Ethyl Ester]	151 to 152	0 to 49		0 to 49		0 to 49	0 to 49	50 to 79	0 to 49	0 to 49			
CC(Nc1ncnc2scc(Cl)c12)c1ccc(OCC(F)(F)F)nc1 (centres unmarked) [Compound 38]		0 to 49	80 to 100	80 to 100	80 to 100	80 to 100	80 to 100	50 to 79	0 to 49	50 to 79			
OCC(Nc1ncnc2scc(Cl)c12)c1ccccc1 (centres unmarked) [Compound 30]	120	0 to 49			0 to 49	0 to 49		0 to 49	0 to 49	0 to 49	*** (*** is 80-100 percent control of disease)	*** (*** is 80-100 percent control of disease)	*** (*** is 80-100 percent control of disease)
Clc1csc2ncnc(C3Cc4ccccc4C3)c12 [Compound 17]		0 to 49	0 to 49	0 to 49	0 to 49	0 to 49	0 to 49	0 to 49	50 to 79	0 to 49			
COCc1ccc(C(C)Nc2ncnc3scc(Cl)c23)cc1 (centres unmarked) [Compound 14]		80 to 100	80 to 100	80 to 100	80 to 100	80 to 100	80 to 100	80 to 100	0 to 49	80 to 100			
CC(Nc1ncnc2scc(Cl)c12)c1cc[nH]c1 (centres unmarked) [Compound 15]		0 to 49	0 to 49	80 to 100	0 to 49	0 to 49	50 to 79	0 to 49	0 to 49	0 to 49			
CCOc1ccc(C(C)Nc2ncnc3scc(Cl)c23)cn1 (centres unmarked) [Compound 39]		0 to 49	80 to 100	80 to 100	80 to 100	50 to 79	80 to 100	80 to 100	0 to 49	80 to 100			
CSc1ccc(C(C)Nc2ncnc3scc(Cl)c23)cc1 (centres unmarked) [Compound 42]		0 to 49	80 to 100	80 to 100	50 to 79	0 to 49	80 to 100	80 to 100	0 to 49	50 to 79			
CC(COc1ccc(C(F)(F)F)cn1)Nc1ncnc2scc(Cl)c12 (centres unmarked) [Compound 18, 5-chloro-N-(1-methyl-2-{[5-(trifluoromethyl)pyridin-2-yl]oxy}ethyl)thieno [2,3-d]pyrimidin-4-amine]		0 to 49	80 to 100	80 to 100	80 to 100	80 to 100	80 to 100	80 to 100	0 to 49	80 to 100			
Clc1csc2ncnc(NC3Cc4ccccc4C3)c12 [Compound 9]		0 to 49	80 to 100	80 to 100	0 to 49	80 to 100	80 to 100	0 to 49	80 to 100	50 to 79			
